Data on eleven molecules can be found in patent US9770446B2, “Piperidine urea derivatives” (MERCK PATENT GMBH, priority 2013, dated 2017).

Bounds are passed on as bounds.

The target in assay [1] is T1, GST-tagged Tnks-2 (873-1166 aa) (Homo sapiens, UniProt Q9H2K2).
T1 construct: GST-tagged Tnks-2 (873-1166 aa, prepared in-house); made in house
Description: TNKS2 activity ELISA (autoparsylation assay). In kind it is biochemical. How it is done: (§1) Description of the TNKS1 and TNKS2 ELISA Assay
(§2) Biochemical Activity Testing of TNKS 1 and 2: Activity ELISA (Autoparsylation Assay)
(§3) For analysis of autoparsylation activity of TNKS 1 and 2 an activity ELISA iss performed: In the first step GST tagged TNKS is captured on a Glutathione coated plate. Then the activity assay with biotinylated NAD is performed in the absence/presence of the compounds. During the enzymatic reaction GST tagged TNKS transfers biotinylated ADP-ribose to itself from biotinylated NAD as co-substrate. For the detection streptavidin-HRP conjugate is added that binds to the biotinylated TNKS and is thereby captured to the plates. The amount of biotinylated resp. autoparsylated TNKS is detected with a luminescence substrate for HRP. The level of the luminescence signal correlates directly with the amount of autoparsylated TNKS and therefore with activity of TNKS.
(§4) The activity ELISA is performed in 384 well Glutathione coated microtiter plates (Express capture Glutathione coated plate, Biocat, Heidelberg, Germany). The plates are pre-equilibrated with PBS. Then the plates are incubated with 50 μl 20 ng/well GST-tagged Tnks-1 (1023-1327 aa, prepared in-house), respectively GST-tagged Tnks-2 (873-1166 aa, prepared in-house) in assay buffer (50 mM HEPES, 4 mM Mg-chloride, 0.05% Pluronic F-68, 2 mM DTT, pH 7.7) overnight at 4° C. The plates are washed 3 times with PBS-Tween-20. The wells are blocked by incubation at room temperature for 20 minutes with 50 μl blocking buffer (PBS, 0.05% Tween-20, 0.5% BSA). Afterwards the plates are washed 3 times with PBS-Tween-20. The enzymatic reaction is performed in 50 μl reaction solution (50 mM HEPES, 4 mM Mg-chloride, 0.05% Pluronic F-68, 1.4 mM DTT, 0.5% DMSO, pH 7.7) with 10 μM bio-NAD (Biolog, Life science Inst., Bremen, Germany) as co-substrate in the absence or presence of the test compound (10 dilution concentrations) for 1 hour at 30° C. The reaction is stopped by 3 times washing with PBS-Tween20. For the detection 50 μl of 20 ng/μl Streptavidin, HRP conjugate (MoBiTec, Göttingen, Germany) in PBS/0.05% Tween-20/0.01% BSA are added and the plates are incubated for 30 minutes at room temperature. After three times washing with PBS-Tween-20 50 μl of SuperSignal ELISA Femto Maximum sensitivity substrate solution (ThermoFisherScientific (Pierce), Bonn, Germany) are added. Following a 1 minute incubation at room temperature luminescence signals are measured with an Envision multimode reader (Perkin Elmer LAS Germany GmbH) at 700 nm. The full value used is the inhibitor-free reaction. The pharmacological zero value used is XAV-939 (Tocris) in a final concentration of 5 μM. The inhibitory values (IC50) are determined using either the program Symyx Assay Explorer® or Condosseo® from GeneData.
(In general: ELISA stands for enzyme-linked immunosorbent assay.)

Assay [2] addresses T2, GST-tagged Tankyrase-2 (873-1166 aa) (Homo sapiens, UniProt Q9H2K2).
T2 construct: GST-tagged Tankyrase-2 (873-1166 aa)
Description: Tankyrase 2 autoparsylation HTRF enzyme assay. It counts as biochemical. The following applies: read-out: IC50 TNKS2 enzyme assay. The procedure:
(§5) Biochemical activity testing of Tankyrase 1 and 2: Autoparsylation assay
(§6) The autoparsylation assay is run in two steps: the enzymatic reaction in which GST-tagged Tankyrase-1, resp Tankyrase-2 transferred biotinylated ADP-ribose to itself from biotinylated NAD as co-substrate and the detection reaction where a time resolved FRET between cryptate labelled anti-GST bound to the GST tag of the enzyme and Xlent® labelled-streptavidin bound the biotin-parsylation residue is analysed. The autoparsylation activity was detectable directly via the increase in HTRF signal.
(§7) The autoparsylation assay is performed as 384-well HTRF® (Cisbio, Codolet, France) assay format in Greiner low volume nb 384-well microtiter plates and is used for high throughput screen. 250 nM GST-tagged Tankyrase-1 (1023-1327 aa), respectively about 250 nM GST-tagged Tankyrase-2 (873-1166 aa) and 5 μM bio-NAD (Biolog, Life science Inst., Bremen, Germany) as co-substrate are incubated in a total volume of 5 μl (50 mM HEPES, 4 mM Mg-chloride, 0.05% Pluronic F-68, 1.4 mM DTT, 0.5% DMSO, pH 7.7) in the absence or presence of the test compound (10 dilution concentrations) for 90 min at 30° C. The reaction is stopped by the addition of 1 μl 50 mM EDTA solution. 2 μl of the detection solution (1.6 μM SA-Xlent® (Cisbio, Codolet, France), 7.4 nM Anti-GST-K® (Eu-labelled anti-GST, Cisbio, Codolet, France) in 50 mM HEPES, 800 mM KF, 0.1% BSA, 20 mM EDTA, 0.1% CHAPS, pH 7.0) are added. After 1 h incubation at room temperature the HTRF is measured with an Envision multimode reader (Perkin Elmer LAS Germany GmbH) at excitation wavelength 340 nm (laser mode) and emission wavelengths 615 nm and 665 nm. The ratio of the emission signals is determined. The full value used is the inhibitor-free reaction. The pharmacological zero value used is XAV-939 (Tocris) in a final concentration of 5 μM. The inhibitory values (IC50) are determined using either the program Symyx Assay Explorer® or Condosseo® from GeneData.
On the technique in general: TR-FRET usually uses a lanthanide donor and a delayed reading to cut background.

The target of assay [3] is T3, GST-tagged Tankyrase-1 (1023-1327 aa) (Homo sapiens, UniProt O95271).
T3 construct: GST-tagged Tankyrase-1 (1023-1327 aa)
T3 sequence (O95271 1023-1327): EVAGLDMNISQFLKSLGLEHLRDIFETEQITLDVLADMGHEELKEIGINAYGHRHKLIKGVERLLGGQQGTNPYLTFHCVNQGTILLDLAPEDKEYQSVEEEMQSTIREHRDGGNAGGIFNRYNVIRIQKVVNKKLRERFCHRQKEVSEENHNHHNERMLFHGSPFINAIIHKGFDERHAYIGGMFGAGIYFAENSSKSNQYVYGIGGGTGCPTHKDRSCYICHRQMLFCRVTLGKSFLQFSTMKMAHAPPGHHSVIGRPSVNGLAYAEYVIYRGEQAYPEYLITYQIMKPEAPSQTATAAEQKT
Nature of the assay: Tankyrase 1 autoparsylation HTRF enzyme assay. In kind it is biochemical. To be noted: read-out: IC50 TNKS1 enzyme assay. The procedure:
as §5, §6, §7

Assay [4] deals with T4, GST-tagged Tnks-1 (1023-1327 aa) (Homo sapiens, UniProt O95271).
T4 construct: GST-tagged Tnks-1 (1023-1327 aa, prepared in-house); made in house
T4 sequence (O95271 1023-1327): as above
Nature of the assay: TNKS1 activity ELISA (autoparsylation assay). In kind it is biochemical. The procedure: as §1, §2, §3, §4

Assay [5] has as its system Tankyrase. Description: Cellular inhibition of Tankyrase: Axin2 level in DLD1 cells (Luminex). It counts as cell-based. To be noted: 24 hours, Axin2 increase, read-out: EC50 [M] TNKS cellular assay. How it is done:
Measurement of Cellular Inhibition of Tankyrase
Since Tankyrases have been described to modulate cellular level of Axin2 (Huang et al., 2009; Nature) the increase of Axin2 level is used as read-out for determination of cellular inhibition of Tankyrases in a Luminex based assay.
Cells of the colon carcinoma cell line DLD1 are plated in 96 well plates with 1.5×10^4 cells per well. Next day, cells are treated with a serial dilution of test compound in seven steps as triplicates with a final DMSO concentration of 0.3%. After 24 hours, cells are lysed in lysis buffer (20 mM Tris/HCl pH 8.0, 150 mM NaCl, 1% NP40, 10% Glycerol) and lysates are cleared by centrifugation through a 96 well filter plate (0.65 μm). Axin2 protein is isolated from cell lysates by incubation with a monoclonal anti-Axin2 antibody (R&D Systems #MAB6078) that is bound to fluorescent carboxybeads. Then, bound Axin2 is specifically detected with a polyclonal anti-Axin2 antibody (Cell Signaling #2151) and an appropriate PE-fluorescent secondary antibody. The amount of isolated Axin2 protein is determined in a Luminex^200 machine (Luminex Corporation) according to the manufacturer's instruction by counting 100 events per well. Inhibition of Tankyrase by test compounds results in higher levels of Axin2 which directly correlates with an increase of detectable fluorescence. As controls cells are treated with solvent alone (neutral control) and with a Tankyrase reference inhibitor IWR-2 (3E-06 M) which refers as control for maximum increase of Axin2. For analysis, the obtained data are normalized against the untreated solvent control and fitted for determination of the EC50 values using the Assay Explorer software (Accelrys).

T2 sequence (Q9H2K2 873-1166): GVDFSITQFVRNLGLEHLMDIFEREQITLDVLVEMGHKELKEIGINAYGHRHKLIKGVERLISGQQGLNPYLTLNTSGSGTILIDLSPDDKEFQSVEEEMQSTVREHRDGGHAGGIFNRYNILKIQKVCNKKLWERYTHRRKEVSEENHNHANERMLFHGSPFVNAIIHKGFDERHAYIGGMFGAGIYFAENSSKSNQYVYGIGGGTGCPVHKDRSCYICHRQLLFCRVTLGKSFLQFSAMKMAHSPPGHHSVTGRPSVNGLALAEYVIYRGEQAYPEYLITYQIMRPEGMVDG
T1 sequence (Q9H2K2 873-1166): as above

For orientation: IC50 means the concentration that gives 50% inhibition. The term EC50 denotes the concentration giving half of the maximal effect. `COc1ccc(N(C)C(=O)N2CCC(C(=O)c3ccc(F)cc3)CC2)cn1` [Compound A51, 4-(4-fluorobenzoyl)-N-(6-methoxy-3-pyridyl)-N-methyl-piperidine-1-carboxamide]: the half-maximal inhibitory concentration (IC50) in assay [1] was < 300 nM; in assay [2], 300 to 3000 nM; in assay [3], 300 to 3000 nM; in assay [4], < 300 nM. The EC50 in assay [5] was 3e-07 to 3e-06 M.
Regarding `COc1ccc(N(C)C(=O)N2CCC(C(=O)c3ccc(OC)c(C)c3)CC2)cc1` [Compound A23, 4-(4-methoxy-3-methyl-benzoyl)-piperidine-1-carboxylic acid (4-methoxy-phenyl)-methyl-amide], the IC50 in assay [1] is < 300 nM; in assay [2], 300 to 3000 nM; in assay [3], < 300 nM; in assay [4], < 300 nM. Besides, the concentration for a half-maximal effect (EC50) in assay [5] is < 3e-07 M.
Regarding `COc1cccc(N(C)C(=O)N2CCC(C(=O)c3ccccc3)CC2)c1` [Compound A3, 4-benzoyl-piperidine-1-carboxylic acid (3-methoxy-phenyl)-methyl-amide], the half-maximal inhibitory concentration (IC50) in assay [1] was < 300 nM; in assay [2] it was 300 to 3000 nM; in assay [3], 300 to 3000 nM; in assay [4], < 300 nM. In assay [5], the concentration giving a half-maximal response (EC50) was 3e-07 to 3e-06 M.
For the molecule `COc1ccc(N(C)C(=O)N2CCC(C(=O)c3cccc(C)c3)CC2)cn1` [Compound A45, N-(6-methoxy-3-pyridyl)-N-methyl-4-(3-methylbenzoyl)piperidine-1-carboxamide], the IC50 is < 300 nM in assay [1], 300 to 3000 nM in assay [2], 300 to 3000 nM in assay [3] and < 300 nM in assay [4]. The half-maximal effective concentration (EC50) in assay [5] is < 3e-07 M.
For the molecule `COc1cccc(C(=O)C2CCN(C(=O)N(C)c3ccc(OC)nc3)CC2)c1` [Compound A47, 4-(3-methoxybenzoyl)-N-(6-methoxy-3-pyridyl)-N-methyl-piperidine-1-carboxamide], the IC50 was < 300 nM in assay [1], 300 to 3000 nM in assay [2], 300 to 3000 nM in assay [3] and < 300 nM in assay [4]. Moreover, the EC50 in assay [5] fell in the range of 3e-07 to 3e-06 M.
`COc1ccc(N(C)C(=O)N2CCC(C(=O)c3ccc(C)cc3)CC2)cn1` [Compound A46, N-(6-methoxy-3-pyridyl)-N-methyl-4-(4-methylbenzoyl)piperidine-1-carboxamide]: the IC50 in assay [1] is < 300 nM; in assay [2], 300 to 3000 nM; in assay [3], 300 to 3000 nM; in assay [4], < 300 nM. For the same molecule, the concentration giving a half-maximal response (EC50) in assay [5] is 3e-07 to 3e-06 M.
In the case of `CN(C(=O)N1CCC(C(=O)c2ccccc2)CC1)c1cccc(C#N)c1` [Compound A10, 4-benzoyl-piperidine-1-carboxylic acid (3-cyano-phenyl)-methyl-amide], the IC50 in assay [1] is < 300 nM; in assay [2] it was 3000 to 50000 nM; in assay [3], 300 to 3000 nM; in assay [4] it was 300 to 3000 nM. For the same molecule, the 50% effective concentration (EC50) in assay [5] lay in the range of 3e-06 to 5e-05 M.
For `CN(C(=O)N1CCC(C(=O)c2ccccc2)CC1)c1ccc(C#N)cc1` [Compound A11, 4-benzoyl-piperidine-1-carboxylic acid (4-cyano-phenyl)-methyl-amide], the IC50 in assay [1] was < 300 nM; in assay [2] it was 300 to 3000 nM; in assay [3], 300 to 3000 nM; in assay [4] it was < 300 nM. In addition, in assay [5], the EC50 lay in the range of 3e-07 to 3e-06 M.
For the molecule `COc1ccc(N(C)C(=O)N2CCC(C(=O)c3cccc(F)c3)CC2)cn1` [Compound A50, 4-(3-fluorobenzoyl)-N-(6-methoxy-3-pyridyl)-N-methyl-piperidine-1-carboxamide], the half-maximal inhibitory concentration (IC50) is < 300 nM in assay [1], 300 to 3000 nM in assay [2], 300 to 3000 nM in assay [3] and < 300 nM in assay [4]. Moreover, the EC50 in assay [5] was 3e-07 to 3e-06 M.
Consider `CN(C(=O)N1CCC(C(=O)c2ccccc2)CC1)c1cccc(F)c1` [Compound A12, 4-benzoyl-piperidine-1-carboxylic acid (3-fluoro-phenyl)-methyl-amide], for which the IC50 in assay [1] is < 300 nM; in assay [2], 300 to 3000 nM; in assay [3] it was 300 to 3000 nM; in assay [4], < 300 nM. The 50% effective concentration (EC50) in assay [5] was 3e-07 to 3e-06 M.
Consider `O=C(c1ccc(Cl)cc1)C1CCN(C(=O)N2CCc3ccccc32)CC1` [Compound A21, [4-(4-chloro-benzoyl)-piperidin-1-yl]-(2,3-dihydro-indol-1-yl)-methanone], for which the IC50 in assay [1] was < 300 nM; in assay [2], 300 to 3000 nM; in assay [3], 300 to 3000 nM; in assay [4] it was 300 to 3000 nM. Also, the 50% effective concentration (EC50) in assay [5] fell in the range of 3e-06 to 5e-05 M.
